{"source": "paper PMC4680881", "about": "(Scientific Reports, 2015)", "key": {"Aβ (1–42) fibrils": {"molecular_target": "Aβ (1–42) fibrils", "conditions": "cited from earlier work"}, "amyloid plaques": {"system": "amyloid plaques", "conditions": "cited from earlier work"}, "Aβ aggregates": {"system": "Aβ aggregates", "conditions": "cited from earlier work"}, "PrP^Sc deposits [1]": {"molecular_target": "T1, PrP^Sc deposits (Mus musculus, UniProt P04925)", "T1 sequence (P04925 23-230 limits assumed)": "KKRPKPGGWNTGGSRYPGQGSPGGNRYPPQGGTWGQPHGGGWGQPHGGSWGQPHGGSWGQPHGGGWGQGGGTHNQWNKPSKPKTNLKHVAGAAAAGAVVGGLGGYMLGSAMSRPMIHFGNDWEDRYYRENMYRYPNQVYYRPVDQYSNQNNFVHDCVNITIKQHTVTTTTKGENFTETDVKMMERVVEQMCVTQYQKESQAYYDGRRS", "conditions": "100 μM compound; for Fluorescence staining: brain sections from mock-infected mice; for Fluorescence staining of PrP^Sc deposits: brain slices from mBSE-infected mice"}, "rMoPrP aggregates [2]": {"molecular_target": "T2, rMoPrP aggregates (Mus musculus, UniProt P04925)", "T2 sequence (P04925 23-231 limits assumed)": "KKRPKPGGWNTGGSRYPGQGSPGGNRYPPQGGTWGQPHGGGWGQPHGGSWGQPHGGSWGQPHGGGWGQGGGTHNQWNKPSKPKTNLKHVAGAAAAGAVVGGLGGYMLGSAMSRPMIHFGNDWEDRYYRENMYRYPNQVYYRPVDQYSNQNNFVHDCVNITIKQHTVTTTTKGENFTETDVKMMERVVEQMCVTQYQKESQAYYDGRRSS", "assay": "biochemical", "assay_type": "binding"}, "PrP^Sc deposits [3]": {"molecular_target": "T1, PrP^Sc deposits", "assay_type": "in vivo"}, "PrP^Sc deposits [4]": {"molecular_target": "T1, PrP^Sc deposits", "assay_type": "in vivo", "remark": "listed apart in the source"}, "rMoPrP aggregates [5]": {"molecular_target": "T2, rMoPrP aggregates", "assay": "biochemical", "assay_type": "binding", "remark": "listed apart in the source"}, "PrP^Sc deposits [6]": {"molecular_target": "T1, PrP^Sc deposits"}, "[7]": {"conditions": "mouse, in vivo; cited from earlier work"}}, "note": "“And” between values parts separate entries of the source, which are not always exact repeats. Identical values can stand only once. Like-named read-outs stand apart in the source and are kept apart here."}
{"compound": "Ic1ccc2nc(-c3ccc(-c4ccn[nH]4)cc3)cn2c1", "note": "[^125I-DRM106]", "values": [{"measurement": "Kd", "setting": "Aβ (1–42) fibrils", "result": 10.1, "unit": "nM"}]}
{"compound": "CN(C)c1ccc(-c2cc(=O)c3cc(I)ccc3o2)cc1", "note": "[FL-NMe2, 6-Iodo-4′-dimethyaminoflavone]", "values": [{"measurement": "Staining of amyloid plaques", "setting": "amyloid plaques", "result": "clearly stained amyloid plaques"}, {"measurement": "Binding affinity for Aβ aggregates", "setting": "Aβ aggregates", "result": "high binding affinities"}, {"measurement": "Fluorescence staining", "setting": "PrP^Sc deposits [1]", "result": "Only background signals"}]}
{"compound": "CN(C)c1ccc(-c2cc(=O)c3cc([125I])ccc3o2)cc1", "note": "[[^125I]FL-NMe2]", "values": [{"measurement": "Bmax", "setting": "rMoPrP aggregates [2]", "result": 11.2, "unit": "pmol/nmol protein"}, {"measurement": "Kd", "setting": "rMoPrP aggregates [2]", "result": 201, "unit": "nM"}]}
{"compound": "CN(C)c1ccc(/C=C/C(=O)c2ccc([125I])cc2)cc1", "note": "[[^125I]CL-NMe2]", "values": [{"measurement": "Bmax", "setting": "rMoPrP aggregates [2]", "result": 16.7, "unit": "pmol/nmol protein"}, {"measurement": "Kd", "setting": "rMoPrP aggregates [2]", "result": "246 nM and 224 nM"}]}
{"compound": "COc1ccc(/C=C/c2cc(=O)c3cc([123I])ccc3o2)cc1", "note": "[[^123I]SC-OMe]", "values": [{"measurement": "Ex vivo autoradiography, accumulation in PrP^Sc-positive regions", "setting": "PrP^Sc deposits [3]; mBSE-infected mice", "result": "significant [^123I]SC-OMe accumulation"}, {"measurement": "Ex vivo autoradiography, accumulation in contralateral site", "setting": "PrP^Sc deposits [3]; mBSE-infected mice", "result": "no significant accumulation"}, {"measurement": "Ex vivo autoradiography, binding in mock-infected mouse brain", "setting": "PrP^Sc deposits [3]; mock-infected mice", "result": "low signals"}, {"measurement": "%SUV", "setting": "PrP^Sc deposits [4]; early period (15–48 min), PBS-injected ipsilateral hemisphere of mock-infected mice", "result": 13.4, "unit": "%SUV"}, {"measurement": "%SUV", "setting": "PrP^Sc deposits [4]; early period (15–48 min), PrP^Sc-positive upper right hemisphere of mBSE-infected mouse", "result": 46.5, "unit": "%SUV"}, {"measurement": "%SUV", "setting": "PrP^Sc deposits [4]; early period (15–48 min), contralateral site of mBSE-infected mice", "result": 23.3, "unit": "%SUV"}, {"measurement": "%SUV", "setting": "PrP^Sc deposits [4]; late period (50–85 min), contralateral site of mBSE-infected mice", "result": 3.7, "unit": "%SUV"}, {"measurement": "%SUV", "setting": "PrP^Sc deposits [4]; late period (50–85 min), ipsilateral site of mock-infected mice", "result": 3.5, "unit": "%SUV"}, {"measurement": "%SUV", "setting": "PrP^Sc deposits [4]; late period (50–85 min), right hemisphere of mBSE-infected mice", "result": 7.5, "unit": "%SUV"}]}
{"compound": "O=c1cc(/C=C/c2ccc(O)cc2)oc2ccc(I)cc12", "note": "[SC-OH, (E)-6-Iodo-2-(4-hydroxylstyryl)-chromone]", "values": [{"measurement": "Ki", "setting": "rMoPrP aggregates [5]", "result": "35 ± 3.72", "unit": "nM"}]}
{"compound": "CN(C)c1ccc(/C=C/c2cc(=O)c3cc([125I])ccc3o2)cc1", "note": "[[^125I]SC-NMe2]", "values": [{"measurement": "fold higher binding affinity compared with [125I]AR-NMe2", "setting": "rMoPrP aggregates [2]", "result": 3.5, "unit": "fold"}, {"measurement": "Kd", "setting": "rMoPrP aggregates [2]", "result": "24.5 nM and 36.7 nM"}]}
{"compound": "CN(C)c1ccc(C=C2Oc3ccc(I)cc3C2=O)cc1", "note": "[AR-NMe2, 2-[(4-Dimethylaminophenyl)methylene]-5-iodo-3(2H)-benzofuranone]", "values": [{"measurement": "Staining of amyloid plaques", "setting": "amyloid plaques", "result": "clearly stained amyloid plaques"}, {"measurement": "Binding affinity for Aβ aggregates", "setting": "Aβ aggregates", "result": "high binding affinities"}, {"measurement": "Fluorescence staining", "setting": "PrP^Sc deposits [1]", "result": "Only background signals"}]}
{"compound": "COc1ccc(/C=C/c2cc(=O)c3cc(I)ccc3o2)cc1", "note": "[SC-OMe, (E)-6-Iodo-2-(4-methoxystyryl) chromone]", "values": [{"measurement": "Ki", "setting": "rMoPrP aggregates [5]", "result": "20.8 ± 0.69", "unit": "nM"}, {"measurement": "Fluorescence staining", "setting": "PrP^Sc deposits [1]", "result": "no significant signals"}, {"measurement": "Fluorescence staining of PrP^Sc deposits", "setting": "PrP^Sc deposits [1]", "result": "clear fluorescence images"}]}
{"compound": "CN(C)c1ccc(/C=C/C(=O)c2ccc(I)cc2)cc1", "note": "[CL-NMe2, (E)-3-(4-(Dimethylamino)phenyl)-1-(4-iodophenyl) prop-2-en-1-one]", "values": [{"measurement": "Staining of amyloid plaques", "setting": "amyloid plaques", "result": "clearly stained amyloid plaques"}, {"measurement": "Binding affinity for Aβ aggregates", "setting": "Aβ aggregates", "result": "high binding affinities"}, {"measurement": "Fluorescence staining", "setting": "PrP^Sc deposits [1]", "result": "Only background signals"}]}
{"compound": "[125I]c1ccc2nc(-c3ccc(-c4ccn[nH]4)cc3)cn2c1", "note": "[^125I-DRM106]", "values": [{"measurement": "Bmax", "setting": "Aβ (1–42) fibrils", "result": 34.3, "unit": "pmol/nmol"}]}
{"compound": "CNc1ccc(C=Cc2cc(=O)c3cc([125I])ccc3o2)cc1", "note": "[[^125I]SC-NHMe]", "values": [{"measurement": "In vitro autoradiography, distribution of radioactivity", "setting": "PrP^Sc deposits [6]; brain sections of mock-infected mice", "result": "homogeneous distribution of radioactivity"}, {"measurement": "In vitro autoradiography, signal in PrP^Sc deposit region", "setting": "PrP^Sc deposits [6]; mBSE-infected mice, right corpus callosum region", "result": "high level of background and no significant accumulation of prion deposits"}]}
{"compound": "Nc1ccc(/C=C/c2cc(=O)c3cc(I)ccc3o2)cc1", "note": "[SC-NH2, (E)-6-Iodo-2-(4-aminostyryl)-chromone]", "values": [{"measurement": "Ki", "setting": "rMoPrP aggregates [5]", "result": "58.7 ± 5.93", "unit": "nM"}, {"measurement": "fold lower binding affinity than SC-OMe", "setting": "rMoPrP aggregates [5]", "result": 2.8, "unit": "fold"}]}
{"compound": "CNc1ccc(/C=C/c2cc(=O)c3cc(I)ccc3o2)cc1", "note": "[SC-NHMe, (E)-6-Iodo-2-(4-(methylamino)styryl)-chromone]", "values": [{"measurement": "Ki", "setting": "rMoPrP aggregates [5]", "result": "17 ± 5.41", "unit": "nM"}, {"measurement": "Fluorescence staining", "setting": "PrP^Sc deposits [1]", "result": "no significant signals"}, {"measurement": "Fluorescence staining of PrP^Sc deposits", "setting": "PrP^Sc deposits [1]", "result": "clear fluorescence images"}]}
{"compound": "O=c1cc(/C=C/c2ccc(OCCO)cc2)oc2ccc(I)cc12", "note": "[SC-OEtOH, (E)-6-Iodo-2-(4-hydroxyethoxystyryl)-chromone]", "values": [{"measurement": "Ki", "setting": "rMoPrP aggregates [5]", "result": "221 ± 46.7", "unit": "nM"}]}
{"compound": "CN(C)c1ccc(/C=C/c2cc(=O)c3cc(I)ccc3o2)cc1", "note": "[SC-NMe2, (E)-6-Iodo-2-(4-(dimethylamino)styryl)-chromone]", "values": [{"measurement": "Bmax", "setting": "rMoPrP aggregates [2]", "result": 36.3, "unit": "pmol/nmol protein"}, {"measurement": "Kd", "setting": "rMoPrP aggregates [2]", "result": 24.5, "unit": "nM"}, {"measurement": "Brain uptake and washout", "setting": "[7]", "result": "low brain uptake and slow washout"}, {"measurement": "Staining of amyloid plaques", "setting": "amyloid plaques", "result": "clearly stained amyloid plaques"}, {"measurement": "Binding affinity for Aβ aggregates", "setting": "Aβ aggregates", "result": "high binding affinities"}, {"measurement": "Fluorescence staining", "setting": "PrP^Sc deposits [1]", "result": "Only background signals"}, {"measurement": "Fluorescence staining of PrP^Sc deposits", "setting": "PrP^Sc deposits [1]", "result": "clearly labelled PrP^Sc deposits"}]}
{"compound": "COc1ccc(/C=C/c2cc(=O)c3cc(I)ccc3o2)cc1OC", "note": "[SC-(OMe)2, (E)-6-Iodo-2-(3,4-dimethoxystyryl) chromone]", "values": [{"measurement": "Ki", "setting": "rMoPrP aggregates [5]", "result": "26.6 ± 1.48", "unit": "nM"}, {"measurement": "Fluorescence staining", "setting": "PrP^Sc deposits [1]", "result": "no significant signals"}, {"measurement": "Fluorescence staining of PrP^Sc deposits", "setting": "PrP^Sc deposits [1]", "result": "clear fluorescence images"}]}
{"compound": "CN(C)c1ccc(/C=C2\\Oc3ccc([125I])cc3C2=O)cc1", "note": "[[^125I]AR-NMe2]", "values": [{"measurement": "Bmax", "setting": "rMoPrP aggregates [2]", "result": 34.9, "unit": "pmol/nmol protein"}, {"measurement": "Kd", "setting": "rMoPrP aggregates [2]", "result": "125 nM and 119 nM"}]}
